Experimental data: paper PMC6264423, “Phytochemical and Cytotoxic Investigations of Curcuma mangga Rhizomes” (Molecules, 2011)
In brackets after ≈: the same amount, converted by molar mass.

Columns and labels:
[1] = test system: cervical cell line (Ca Ski); assay: in-vitro neutral red cytotoxicity assay, Ca Ski; format: cell-based; conditions: Homo sapiens, mean ± SD of three replicates
Method: (§1) In-vitro neutral red cytotoxicity assay: All cancer cell lines were purchased from the American Type Culture Collection (ATCC, USA), medium like RPMI 1640, McCOY’S 5A, Eagle Minimum Essential Medium (EMEM) from Sigma-Aldrich, USA. The supplements or antibiotics such as foetal bovine serum, penicillin/streptomycin (100 μg/mL), amphotericin B (50 μg/mL), tripsin-EDTA (100X) were purchased from PAA Lab, Austria as well as sodium pyruvate (11 mg/mL) from Sigma-Aldrich, USA. The cells were cultured in a Shel Lab water-jacketed CO2 incubator with 25 cm^3 tissue culture flasks (Nunc, Denmark), which was observed routinely under inverted microscope (Leica DMI3000 B, Germany) for any contamination and seeded into 96-well flat bottom microtiter plate (Nunc, Denmark). The extract or pure compounds were dissolved in dimethyl sulfoxide (DMSO, Molecular Biology Grade, >99.9%) from Sigma-Aldrich, USA. The 96-well microtiter plate was agitated rapidly on a microtiter plate incubator shaker (LT Biomax 500) and absorbance of eluted dye measured at 540 nm using a ELISA microplate reader (EMax microplate reader of Molecular Devices, USA). Cell lines such as MCF-7, A549, Ca Ski and HT-29 were maintained in RPMI 1640 medium, HCT 116 in McCOY’S 5A Medium, KB and MRC-5 cells in Eagle Minimum Essential Medium (EMEM). All of these media were supplemented with 10% foetal bovine serum (FBS), penicillin/streptomycin, amphotericin B and only additional sodium pyruvate in EMEM. The cells were cultured in tissue culture flask in 5% CO2 incubator kept at 37 °C in a humidified atmosphere and observed routinely under inverted microscope from any contaminations. Each fresh medium was replaced every 2 or 3 days until cell confluence was achieved and the cells were detached by using tripsin-EDTA.

[2] = test system: colon cell line (HCT 116); assay: in-vitro neutral red cytotoxicity assay, HCT 116; format: cell-based; conditions: Homo sapiens, mean ± SD of three replicates
Method: as §1

[3] = test system: non-cancer human fibroblast cell line (MRC-5); assay: in-vitro neutral red cytotoxicity assay, MRC-5; conditions: MRC5, read-out: IC50 values, MRC-5
Method: as §1

[4] = test system: colon cell line (HT-29); assay: in-vitro neutral red cytotoxicity assay, HT-29; format: cell-based; conditions: Homo sapiens, mean ± SD of three replicates
Method: as §1

[5] = test system: hormone-dependent breast cell line (MCF-7); assay: in-vitro neutral red cytotoxicity assay, MCF-7; format: cell-based; conditions: Homo sapiens, MCF7, mean ± SD of three replicates
Method: as §1

[6] = test system: lung cell line (A549); assay: in-vitro neutral red cytotoxicity assay, A549; format: cell-based; conditions: Homo sapiens, mean ± SD of three replicates
Method: as §1

[7] = test system: nasopharyngeal epidermoid cell line (KB); assay: in-vitro neutral red cytotoxicity assay, KB; format: cell-based; conditions: Homo sapiens, mean ± SD of three replicates
Method: as §1

[8] = test system: human cancer cell lines (MCF-7, KB, A549, Ca Ski, HCT 116, HT-29); assay: in-vitro neutral red cytotoxicity assay, panel of six cancer cell lines; format: cell-based
Method: In-vitro neutral red cytotoxicity assay: All cancer cell lines were purchased from the American Type Culture Collection (ATCC, USA), medium like RPMI 1640, McCOY’S 5A, Eagle Minimum Essential Medium (EMEM) from Sigma-Aldrich, USA. The supplements or antibiotics such as foetal bovine serum, penicillin/streptomycin (100 μg/mL), amphotericin B (50 μg/mL), tripsin-EDTA (100X) were purchased from PAA Lab, Austria as well as sodium pyruvate (11 mg/mL) from Sigma-Aldrich, USA. The cells were cultured in a Shel Lab water-jacketed CO2 incubator with 25 cm^3 tissue culture flasks (Nunc, Denmark), which was observed routinely under inverted microscope (Leica DMI3000 B, Germany) for any contamination and seeded into 96-well flat bottom microtiter plate (Nunc, Denmark). The extract or pure compounds were dissolved in dimethyl sulfoxide (DMSO, Molecular Biology Grade, >99.9%) from Sigma-Aldrich, USA. The 96-well microtiter plate was agitated rapidly on a microtiter plate incubator shaker (LT Biomax 500) and absorbance of eluted dye measured at 540 nm using a ELISA microplate reader (EMax microplate reader of Molecular Devices, USA). Cell lines such as MCF-7, A549, Ca Ski and HT-29 were maintained in RPMI 1640 medium, HCT 116 in McCOY’S 5A Medium, KB and MRC-5 cells in Eagle Minimum Essential Medium (EMEM). […]

[9] = test system: non-cancer human fibroblast cell line (MRC-5)
Method: as §1

Molecule	IC50 [1] [µg/mL]	IC50 [2] [µg/mL]	IC50 [3] [µg/mL]	IC50 [4] [µg/mL]	IC50 [5] [µg/mL]	IC50 [6] [µg/mL]	IC50 [7] [µg/mL]	cytotoxic activity on the investigated human cancer cell lines (in words) ([8]; all investigated human cancer cell lines)	IC50 ([8]; Homo sapiens, span over the six cancer cell lines, read-out: IC50 values across all tested human cancer cell lines) [µg/mL]	effect on the normal human fibroblast cell line (in words) [9]
C=C1CC[C@H]2C(C)(C)CCC[C@]2(C)[C@H]1CC=C(C=O)CC(=O)O (stereo in doubt) [Compound 3, zerumin A]	14.2 ± 0.06 (≈ 44.6 µM)	9.3 ± 0.5 (≈ 29.2 µM)	16.2 ± 0.25 (≈ 50.9 µM)	14.9 ± 0.4 (≈ 46.8 µM)	8.7 ± 0.29 (≈ 27.3 µM)	9.2 ± 0.62 (≈ 28.9 µM)	11.7 ± 1.15 (≈ 36.7 µM)			
C=C1CCC2C(C)(C)CCC[C@]2(C)C1C/C=C(/C=O)CC=O (stereo partly shown) [Compound 1, (E)-labda-8(17),12-dien-15,16-dial]	12.1 ± 0.35 (≈ 40 µM)	7.6 ± 0.23 (≈ 25.1 µM)	8.9 ± 0.49 (≈ 29.4 µM)	6.3 ± 0.26 (≈ 20.8 µM)	4.3 ± 1.3 (≈ 14.2 µM)	19.9 ± 0.38 (≈ 65.8 µM)	14.5 ± 0.87 (≈ 47.9 µM)			
C=C1CCC2C(C)(C)CCC[C@]2(C)C1/C=C/C(C)=O (stereo partly shown) [Compound 2, (E)-15,16-bisnorlabda-8(17),11-dien-13-one]	> 100	> 100	> 100	> 100	> 100	> 100	> 100	no cytotoxic activity		
COc1cccc2c1C(=O)c1c(O)c3c(c(O)c1C2=O)C[C@@](O)(C(=O)CO)C[C@@H]3O[C@H]1C[C@H](N)[C@H](O)[C@H](C)O1 [Doxo *, Doxorubicin, reference compound]	0.18 ± 0.06 (≈ 0.331 µM)	0.24 ± 0.04 (≈ 0.442 µM)	0.4 ± 0.03 (≈ 0.736 µM)	0.33 ± 0.03 (≈ 0.607 µM)	0.05 ± 0.01 (≈ 0.092 µM)	0.58 ± 0.01 (≈ 1.07 µM)	0.27 ± 0.01 (≈ 0.497 µM)		0.05 to 0.58 (≈ 0.092 to 1.07 µM)	
Ethyl acetate										caused no damage
